Experimental findings from PubChem BioAssay (NCI) are described below.

“And” between values parts separate entries of the source, which are not always exact repeats. Equal values may be shown once.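 All cell lines were grown in 96-well plates and treated with compound for 48 hours. Here, GI50 denotes the concentration required for 50% inhibition of growth. TGI denotes the concentration required for complete inhibition of growth.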

The subject of the first test is MCF7 breast. The test can be described thus: growth of human tumour cells (NCI), 48 h.
Take `CCCN(Cc1ccc(F)cc1)c1ccc(CO)c(Cl)c1`: the GI50 was 375 nM and the TGI is 12.9 µM.

Regarding `CC[C@](C)(O)C(=O)O[C@H]1C(=O)O[C@@H]2C[C@H]3C(C)=CC(=O)[C@@H](O)[C@]3(C)[C@H]3[C@@]4(O)OC[C@]32[C@@H]1[C@@H](C)[C@H]4O`, the GI50 is 335 nM.

Take `CCN1C(=O)N(CC)C2C1NN=c1s/c(=C3\C(=O)N(C(C)C)c4ccccc43)c(=O)n12` (configuration not stated): the GI50 was 396 nM and the TGI is over 100 µM.

With `NC(=O)[C@H]1CCN(c2ncnc(N)c2F)C[C@@H]1N1CCC[C@@H](Nc2cc(Cl)cc(C(F)(F)F)c2)C1=O`, the GI50 was 13100 nM and the TGI stood at 52.4 µM.

`CCN(CC)c1ccc(/C=C/c2cc(C)c3ccccc3n2)cc1`: the GI50 was 2310 nM and the TGI was determined as 75.8 µM.

Consider `Cc1ccc2[nH]c(C(=O)NN3C(=O)CSC34CCCCC4C)c(-c3ccccc3)c2c1` (configuration not stated), for which the GI50 is 14900 nM and the TGI was 39.2 µM.

`O=C(CCl)c1ccc([N+](=O)[O-])o1`: the GI50 is 1870 nM and the TGI is 5.82 µM.

`Nc1ncnc2c1ccn2C1OC2COP(=O)(O)OC2C1O` (configuration not stated): the TGI was over 100 µM.

For `Cc1cc(N2CCCCC2)nc(N(CCNc2ccnc3cc(Cl)ccc23)Cc2ccco2)n1`, the GI50 is 1590 nM and the TGI was 3.19 µM.

`CCCN1C(=O)/C(=c2\sc3n(c2=O)C2C(NN=3)N(CC)C(=O)N2CC)c2ccccc21` (configuration not stated): the GI50 is 396 nM and the TGI was over 32.9 µM.

For `CCn1c(-c2nonc2N)nc2cncc(C(=O)N3CCNCC3)c21`, the GI50 was over 25000 nM and the TGI is over 25 µM.

In another test the test system is NCI-H226 lung. The experiment in a line: growth of human tumour cells (NCI), 48 h.
As for `CCCN(Cc1ccc(F)cc1)c1ccc(CO)c(Cl)c1`, the GI50 was 36.5 nM and the TGI was determined as 0.144 µM.

Take `CC[C@](C)(O)C(=O)O[C@H]1C(=O)O[C@@H]2C[C@H]3C(C)=CC(=O)[C@@H](O)[C@]3(C)[C@H]3[C@@]4(O)OC[C@]32[C@@H]1[C@@H](C)[C@H]4O`: the GI50 is 203 nM; the TGI was 0.664 µM and 0.435 µM.

`CCN1C(=O)N(CC)C2C1NN=c1s/c(=C3\C(=O)N(C(C)C)c4ccccc43)c(=O)n12` (configuration not stated): the GI50 was 441 nM and the TGI was 23.2 µM.

Turning to `NC(=O)[C@H]1CCN(c2ncnc(N)c2F)C[C@@H]1N1CCC[C@@H](Nc2cc(Cl)cc(C(F)(F)F)c2)C1=O`, the GI50 is 18400 nM and the TGI is 70 µM.

In the case of `CCN(CC)c1ccc(/C=C/c2cc(C)c3ccccc3n2)cc1`, the GI50 was 11900 nM and the TGI came to 91.3 µM.

Consider `Cc1ccc2[nH]c(C(=O)NN3C(=O)CSC34CCCCC4C)c(-c3ccccc3)c2c1` (configuration not stated), for which the GI50 was 17500 nM and the TGI worked out at 34.2 µM.

For `O=C(CCl)c1ccc([N+](=O)[O-])o1`, the GI50 is 2450 nM and the TGI is 7.05 µM.

For the molecule `Nc1ncnc2c1ccn2C1OC2COP(=O)(O)OC2C1O` (configuration not stated), the TGI came out at 28.5 µM.

As to `Cc1cc(N2CCCCC2)nc(N(CCNc2ccnc3cc(Cl)ccc23)Cc2ccco2)n1`, the GI50 is 1690 nM and the TGI came out at 3.96 µM.

For `CCCN1C(=O)/C(=c2\sc3n(c2=O)C2C(NN=3)N(CC)C(=O)N2CC)c2ccccc21` (configuration not stated), the GI50 was 1450 nM and the TGI was over 33 µM.

Turning to `CCn1c(-c2nonc2N)nc2cncc(C(=O)N3CCNCC3)c21`, the GI50 is over 25000 nM and the TGI is over 25 µM.

The test system of a further test is PC-3 prostate. The experiment in a line: growth of human tumour cells (NCI), 48 h.
Consider `CCCN(Cc1ccc(F)cc1)c1ccc(CO)c(Cl)c1`, for which the GI50 is 11.6 µM and the TGI is 24.6 µM.

As to `CC[C@](C)(O)C(=O)O[C@H]1C(=O)O[C@@H]2C[C@H]3C(C)=CC(=O)[C@@H](O)[C@]3(C)[C@H]3[C@@]4(O)OC[C@]32[C@@H]1[C@@H](C)[C@H]4O`, the TGI was 44.5 µM.

In the case of `CCN1C(=O)N(CC)C2C1NN=c1s/c(=C3\C(=O)N(C(C)C)c4ccccc43)c(=O)n12` (configuration not stated), the GI50 is 0.412 µM and the TGI was over 100 µM.

Consider `NC(=O)[C@H]1CCN(c2ncnc(N)c2F)C[C@@H]1N1CCC[C@@H](Nc2cc(Cl)cc(C(F)(F)F)c2)C1=O`, for which the GI50 is 17.7 µM and the TGI is over 100 µM.

For `CCN(CC)c1ccc(/C=C/c2cc(C)c3ccccc3n2)cc1`, the GI50 was 4.84 µM and the TGI is over 100 µM.

`Cc1ccc2[nH]c(C(=O)NN3C(=O)CSC34CCCCC4C)c(-c3ccccc3)c2c1` (configuration not stated): the GI50 is 12.5 µM and the TGI stood at 30.1 µM.

Turning to `O=C(CCl)c1ccc([N+](=O)[O-])o1`, the GI50 was 2.15 µM and the TGI worked out at 6.34 µM.

`Nc1ncnc2c1ccn2C1OC2COP(=O)(O)OC2C1O` (configuration not stated): the TGI was determined as 3.07 µM.

As for `Cc1cc(N2CCCCC2)nc(N(CCNc2ccnc3cc(Cl)ccc23)Cc2ccco2)n1`, the GI50 was 1.69 µM and the TGI came to 3.72 µM.

Regarding `CCCN1C(=O)/C(=c2\sc3n(c2=O)C2C(NN=3)N(CC)C(=O)N2CC)c2ccccc21` (configuration not stated), the GI50 was 0.453 µM and the TGI is over 37.2 µM.

Consider `CCn1c(-c2nonc2N)nc2cncc(C(=O)N3CCNCC3)c21`, for which the GI50 was over 25 µM and the TGI is over 25 µM.

The subject of a further test is SF-295 CNS. The experiment in a line: growth of human tumour cells (NCI), 48 h.
`CCCN(Cc1ccc(F)cc1)c1ccc(CO)c(Cl)c1`: the GI50 is 1410 nM and the TGI was found to be 9.65 µM.

As to `CC[C@](C)(O)C(=O)O[C@H]1C(=O)O[C@@H]2C[C@H]3C(C)=CC(=O)[C@@H](O)[C@]3(C)[C@H]3[C@@]4(O)OC[C@]32[C@@H]1[C@@H](C)[C@H]4O`, the GI50 is 296 nM; the TGI is 2.6 µM and 0.351 µM.

Take `CCN1C(=O)N(CC)C2C1NN=c1s/c(=C3\C(=O)N(C(C)C)c4ccccc43)c(=O)n12` (configuration not stated): the GI50 was 246 nM and the TGI was determined as 0.83 µM.

`NC(=O)[C@H]1CCN(c2ncnc(N)c2F)C[C@@H]1N1CCC[C@@H](Nc2cc(Cl)cc(C(F)(F)F)c2)C1=O`: the GI50 was 17100 nM and the TGI was determined as 41.8 µM.

Turning to `CCN(CC)c1ccc(/C=C/c2cc(C)c3ccccc3n2)cc1`, the GI50 was 1800 nM and the TGI was 5.72 µM.

With `Cc1ccc2[nH]c(C(=O)NN3C(=O)CSC34CCCCC4C)c(-c3ccccc3)c2c1` (configuration not stated), the GI50 is 16000 nM and the TGI came to 31.9 µM.

As for `O=C(CCl)c1ccc([N+](=O)[O-])o1`, the GI50 was 5260 nM and the TGI amounted to 17.4 µM.

The molecule `Nc1ncnc2c1ccn2C1OC2COP(=O)(O)OC2C1O` (configuration not stated) returned a TGI of 29.5 µM.

For `Cc1cc(N2CCCCC2)nc(N(CCNc2ccnc3cc(Cl)ccc23)Cc2ccco2)n1`, the GI50 is 1510 nM and the TGI turned out to be 3.12 µM.

As to `CCCN1C(=O)/C(=c2\sc3n(c2=O)C2C(NN=3)N(CC)C(=O)N2CC)c2ccccc21` (configuration not stated), the GI50 was 409 nM and the TGI was found to be 10.7 µM.

As to `CCn1c(-c2nonc2N)nc2cncc(C(=O)N3CCNCC3)c21`, the GI50 is over 25000 nM and the TGI was over 25 µM.

A further test relates to TK-10 renal. The test can be described thus: growth of human tumour cells (NCI), 48 h.
With `CCCN(Cc1ccc(F)cc1)c1ccc(CO)c(Cl)c1`, the GI50 is 0.0777 µM and the TGI turned out to be 0.357 µM.

In the case of `CC[C@](C)(O)C(=O)O[C@H]1C(=O)O[C@@H]2C[C@H]3C(C)=CC(=O)[C@@H](O)[C@]3(C)[C@H]3[C@@]4(O)OC[C@]32[C@@H]1[C@@H](C)[C@H]4O`, the TGI was 9.39 µM.

As to `CCN1C(=O)N(CC)C2C1NN=c1s/c(=C3\C(=O)N(C(C)C)c4ccccc43)c(=O)n12` (configuration not stated), the GI50 is 1.33 µM and the TGI is over 69.4 µM.

As to `NC(=O)[C@H]1CCN(c2ncnc(N)c2F)C[C@@H]1N1CCC[C@@H](Nc2cc(Cl)cc(C(F)(F)F)c2)C1=O`, the GI50 is 13.5 µM and the TGI was determined as 39 µM.

With `CCN(CC)c1ccc(/C=C/c2cc(C)c3ccccc3n2)cc1`, the GI50 was 4.47 µM and the TGI was determined as 13.8 µM.

On to `Cc1ccc2[nH]c(C(=O)NN3C(=O)CSC34CCCCC4C)c(-c3ccccc3)c2c1` (configuration not stated), for which the GI50 is 17.5 µM and the TGI turned out to be 33.8 µM.

With `O=C(CCl)c1ccc([N+](=O)[O-])o1`, the GI50 was 1.79 µM and the TGI came to 3.49 µM.

On to `Nc1ncnc2c1ccn2C1OC2COP(=O)(O)OC2C1O` (configuration not stated), for which the TGI was 4.8 µM.

In the case of `Cc1cc(N2CCCCC2)nc(N(CCNc2ccnc3cc(Cl)ccc23)Cc2ccco2)n1`, the GI50 was 1.94 µM and the TGI worked out at 4.08 µM.

Turning to `CCCN1C(=O)/C(=c2\sc3n(c2=O)C2C(NN=3)N(CC)C(=O)N2CC)c2ccccc21` (configuration not stated), the GI50 was 3.62 µM and the TGI worked out at 22.3 µM.

As to `CCn1c(-c2nonc2N)nc2cncc(C(=O)N3CCNCC3)c21`, the GI50 is over 25 µM and the TGI is over 25 µM.
